≈ marks a conversion by molar mass, not a printed value. Read-outs that look alike come from different tables or passages of the source.
How the values were obtained:
A549 cells [1] = assay: A549 human non-small cell lung carcinoma cell viability assay (CellTiter-Glo); format: cell-based; conditions: small molecules, 72 hours exposure
Protocol: (§1) Test compounds, small molecules or polymer conjugates, were dissolved in dimethyl sulfoxide to a stock concentration of 5 mg/mL. The test agents were then diluted to an intermediate concentration at 200 μg/mL in 10% DMSO. Further dilutions were completed serially 3-fold in 10% DMSO to produce 12 decreasing concentrations for in-vitro analysis. To achieve the target concentrations of the in-vitro assays, […] of the intermediate drug preparation was delivered to the cells (seeded in a volume of 50 μL). The final DMSO concentration for the tests was 0.2% for all doses of test agent.
(§2) Cells were exposed to twelve increasing concentrations of formulated test agent from 2×10^−6 to 4.0 μg/mL for 72 hours. Following 72 hour exposure, 25 μL of CellTiter-Glo® Reagent was added to each well. The plates were incubated for 60 minutes at 37° C. in a humidified incubator. After incubation, luminescence was recorded using the Molecular Devices AnalystGT multi-mode reader.
(§3) Data are expressed as the percent cell growth of the untreated (vehicle) control calculated from the luminescence signals. The surviving fraction of cells is determined by dividing the mean luminescence values of the test agents by the mean luminescence values of untreated control. The inhibitory concentration value for the test agent(s) and control were estimated using Prism 5 software (GraphPad Software, Inc.) by curve-fitting the data using the non-linear regression analysis.
The human tumor cell lines A549 and HCT-116 were obtained from American Type Culture Collection (Manassas, Va.). The Human umbilical vein epithelial cells (HUVEC) were obtained from Lonza (Basel, Switzerland). The A549 cells were maintained RPMI 1640 w/L-glut supplemented with 5% FBS. The HCT-116 cells were maintained in McCoy's 5a supplemented with 5% FBS. The HUVEC line was grown in Endothelial Growth Medium with supplements and growth factors (BBE, hydrocortisone, hEGF, FBS and gentamicin/amphotericin-B). All cells were house in an atmosphere of 5% CO2 at 37° C. Cells were dissociated with 0.05% Trypsin and 0.02% EDTA.
(§4) The human tumor cell line A549 was obtained from American Type Culture Collection (Manassas, Va.). The A549 cells were maintained RPMI 1640 w/L-glut supplemented with 5% FBS. A549 cells were seeded at 500 cells per well 24 hours prior to test agent exposure in a volume of 50 μL. The cells were housed in an atmosphere of 5% CO2 at 37° C. Cells were dissociated with 0.05% Trypsin and 0.02% EDTA.

[2] = tested on: A549 tumor cells vs normal HUVEC cells; assay: A549/HUVEC selectivity (ratio of IC50s); format: cell-based, human
HUVEC cells = assay: Human umbilical vein epithelial cell viability assay (CellTiter-Glo); format: cell-based; conditions: small molecules, 72 hours exposure
Protocol: as §1, §3
The Human umbilical vein epithelial cells (HUVEC) were obtained from Lonza (Basel, Switzerland). The HUVEC line was grown in Endothelial Growth Medium with supplements and growth factors (BBE, hydrocortisone, hEGF, FBS and gentamicin/amphotericin-B). All cells were housed in an atmosphere of 5% CO2 at 37° C. Cells were dissociated with 0.05% Trypsin and 0.02% EDTA.
as §2, with “HUVEC cells were seeded at 1000 cells per well 24 hours prior to test agent exposure in a volume of […]. Cells” for “Cells”, “2.3×10^−6” for “2×10^−6”, “4.02” for “4.0”, “[…]” for “25 μL”, “CellTiter-Glog®” for “CellTiter-Glo®”

HCT-116 cells = assay: HCT-116 human colon tumor cell viability assay (CellTiter-Glo); format: cell-based; conditions: small molecules, 72 hours exposure
Protocol: as §1, §3
as §4, with “cell lines” for “cell line”, “A549 and HCT-116 were” for “A549 was”, “The HCT-116” for “The A549”, “maintained in McCoy's 5a” for “maintained RPMI 1640 w/L-glut”, “FBS. HCT-116” for “FBS. A549”
as §2, with “2.3×10^−6” for “2×10^−6”, “4.02” for “4.0”

B16-F10 tumor cells = assay: In vivo B16-F10 murine melanoma, lung metastases counts; set-up: species or system C57B16 female mice; conditions: 30 mg/kg, qod; sacrificed after 15 days
Protocol: C57B16 female mice (N=8) were injected (tail vein) with 1×10^5 B16-F10 tumor cells. After one day, mice were treated with polymer conjugates as solutions in saline (IV administration, q4d, four doses except that in one group O-7175 was administered as a single dose on day 1). TNP-470 was used as a positive control, saline as a negative control. Mice were sacrificed after 15 days. Treatment outcomes were assessed by counting lung metastases.

Cathepsin B = target: T1, Cathepsin B (Bos taurus, UniProt P07688); assay: Cathepsin B release of fumagillol analogs from HPMA conjugates; format: in vitro ADME; conditions: 40 nM Cathepsin B, approximately 2.5 mg/mL test agent, pH 5.5 or 6.8, 37° C., 0-24 hour, LC/MS/MS
T1 construct: purchased Sigma C6286
Protocol: Cathepsin B (Sigma Cat # C6286 Lot #025K7672) was diluted to a 10× concentration in activation buffer consisting of approximately 400 nM enzyme, 30 mM DTT, 15 mM EDTA and acetate buffer, pH=5.5 for 15 minutes at room temperature.
The HPMA conjugates were made into a 10× stock solution in pH 5.5 buffer. The final reaction was performed by diluting the enzyme and substrate 10 fold into either buffer at pH=5.5 or pH=6.8. The final enzymatic reaction consisted of 40 nM Cathepsin B, approximately 2.5 mg/mL test agent, and buffer at 37° C. The reaction was stopped at 0, 2, 6, and 24 hour. To stop the reaction, 3 volumes of ice-cold methanol containing propranolol internal standard (at 1.0 μM) was added and left on ice. The samples were then analyzed by LC/MS/MS.

A549 cells [3] = format: in vitro ADME, human
Protocol: Cells were treated as in Example 51 except that at the end of 72 hour exposure to test agent, the cells were frozen (−70° C.) and stored for subsequent evaluation by LC/MS.

[4] = for T ½: buffer; for Natural Rate Constant: 37° C., 5 μM
Protocol: At the appropriate time points, a 50 μL sample was withdrawn and diluted with three volumes of methanol containing propranolol as an internal standard (one solution was made for the entire study). The concentration of carbamoylfumagillol in the solution was analyzed by LC/MS/MS over seven days.

[5] = in man; as metabolite of TNP-470; cited from earlier work

Molecule | A549 IC50 Average (A549 cells [1]) [ng/mL] | A549/HUVEC IC50 ratio [2] | HUVEC IC50 Average (HUVEC cells) [ng/mL] | HCT116 IC50 Average (HCT-116 cells) [ng/mL] | products released by Cathepsin B (Cathepsin B) | other results
CO[C@@H]1[C@H](O)CC[C@]2(CO2)[C@H]1[C@@]1(C)O[C@@H]1CC=C(C)C [Fumagillol] | 30.1 | 1.59 | 18.9 | 45.8 |  | 
CO[C@@H]1[C@H](OC(=O)NC(=O)CCl)CC[C@]2(CO2)[C@H]1[C@@]1(C)O[C@@H]1CC=C(C)C [TNP-470, chloroacetylcarbamoylfumagillol] |  | 58.53 |  |  |  | IC50 (A549 cells [1]; Homo sapiens, A549): 8.97 ng/mL (≈ 22.3 nM); Metastases Counts (B16-F10 tumor cells): 39.5; IC50 (HUVEC cells; Homo sapiens, HUVEC): 0.153 ng/mL (≈ 0.381 nM); IC50 (HCT-116 cells; Homo sapiens, HCT-116, read-out: HCT116 IC50 Average): 2.64 ng/mL (≈ 6.57 nM)
poly(HPMA-co-MA-GFLG-N(Me)CH2CH2N(Me)CH2C(O)NHC(O)2-fumagill-6-yl) |  |  |  |  | fumagillol, carbamoylfumagillol, fumagil-6-yl methyl[2-(methylamino)ethyl]carbamate, and ethyl {2-[(aminoacetyl)(methyl)amino]ethyl}methylcarbamate | 
CO[C@@H]1[C@H](OC(=O)N[C@@H](C(N)=O)C(C)C)CC[C@]2(CO2)[C@H]1[C@@]1(C)O[C@@H]1CC=C(C)C [Compound O-7177] | 0.215 | 2.14 | 0.101 | 0.236 |  | 
poly[HPMA-co-MA-GFLG-N-(6-aminohexyl)carbamoylfumagillol] |  |  |  |  | N-(6-aminohexyl)carbamoylfumagillol and fumagil-6-yl {6-[(aminoacetyl)amino]hexyl}carbamate | Metabolites identified from the treated cells (A549 cells [3]): N-(6-aminohexyl)carbamoylfumagillol,fumagill-6-yl {6-[(aminoacetyl)amino]hexyl}carbamate, and the epoxide hydrolysis product, (35′,7aR)-7a-(hydroxymethyl)-4-methoxy-3-methyl-2-(3-methylbut-2-en-1-yl)octahydro-1-benzofuran-3-ol-5-yl 6-aminohexyl carbamate
poly(HPMA-co-MA-GFLG-NHCH2CH2N(Me)CH2C(O)NHC(O)2-fumagill-6-yl) |  |  |  |  | fumagillol, carbamoylfumagillol, and fumagil-6-yl (2-aminoethyl)methylcarbamate | 
CO[C@@H]1[C@H](OC(N)=O)CC[C@]2(CO2)[C@H]1[C@@]1(C)O[C@@H]1CC=C(C)C [Carbamoylfumagillol] | 2.89 |  | 0.086 | 1.035 |  | T ½ ([4]; pH 4): 5.38 days; T ½ ([4]; pH 5.3): 17 days; T ½ ([4]; pH 6.7): 30.3 days; T ½ ([4]; pH 8): 25.5 days; Natural Rate Constant ([4]; pH 4.0, 10 mM sodium acetate buffer): 0.0054 h⁻¹; Natural Rate Constant ([4]; pH 5.3, 10 mM sodium acetate buffer): 0.0017 h⁻¹; decomposition ([4]; pH 5.3 to 8.0, 37° C., over the seven day period): less than 20%; Natural Rate Constant ([4]; pH 6.7, potassium phosphate buffer): 0.0010 h⁻¹; Natural Rate Constant ([4]; pH 8.0, potassium phosphate buffer): 0.0011 h⁻¹; half-life [5]: 12 min
